Test results: patent US20240269305A1, “STING AGONIST SUITABLE AS PAYLOAD OF ANTIBODY DRUG CONJUGATE” (HITGEN INC., priority 2021, published 2024)

What was measured:
[1] = test system: STING signaling pathway; assay: IFN-β production in THP1 cells (ELISA); type: cell-based; details: Homo sapiens, read-out: IFN-β EC50
Procedure: In this experiment, the function of sting agonists was evaluated by detecting the changes of IFN-β and CXCL10 (IP10) cytokines which were produced by the stimulation of the compounds to human peripheral blood mononuclear cell line THP1 cell (Shanghai Cell Bank). On the first day of the experiment, ELISA plates were coated according to the instructions of IFN-β (R&D, #DY814-05) and IP10 (BD, #550926) ELISA detection kits. The compound was dissolved in DMSO as a stock solution, which was diluted with culture medium to a 2× working concentration, and then added to a 96-well plate at 100 μL per well; THP1 cells in the logarithmic growth phase were counted and diluted to a concentration of 2*10^6/mL, which was then added at 100 μL per well to the aforementioned 96-well plate containing the compounds. After mixed, the above cells in the 96-well plate were incubated at 37° C. and 5% CO2 for 18 h. On the second day, the above cell culture supernatant was aspirated at 100 μL per well, and then their OD450 values were determined using the IFN-β and IP10 ELISA detection kits respectively. The obtained data was converted to the concentration of IFN-β and IP10 according to the standard curve, and the EC50 values were calculated using GraphPad 5.0 to fit the dose-effect curve.

[2] = test system: STING signaling pathway; assay: THP1-Blue ISG reporter assay (QUANTI-Blue); type: cell-based, human
Procedure: (§1) In this experiment, THP1-Blue™ ISG (interferon-stimulated genes) cell line (InvivoGen, catalog number: thp-isg) was used to evaluate the activating of interferon signaling pathway after the treatment by the compounds. THP1-Blue™ ISG cells were cultured using RPMI1640 medium (containing 10% heat-inactivated fetal bovine serum, 100 μg/ml Zeocin™, InvivoGen, catalog number: ant-zn-1). On the first day of the experiment, the compound was dissolved in DMSO as a stock solution, which was then diluted with culture medium to 2× working concentration and then 100 μL per well of the above dilution was added to a 96-well plate; THP1 cells in the logarithmic growth phase were counted and diluted to a concentration of 1*10^6 cells/mL, which was then added at 100 μL per well (1*10^5 cells/well) to the aforementioned 96-well plate containing the compounds. After mixed, the above cells in the 96-well plate were incubated at 37° C. with 5% CO2 for 18 h. On the second day, the above cell culture supernatant was aspirated at 20 μL per well, which was added to a new 96-well plate. And then 180 μL per well of QUANTI-Blue™ solution (InvivoGen, catalog number: rep-qbs1) was added. The above cells in the 96-well plate were incubated at 37° C. for 1 h. OD (620-655 nm) value was read on a Microplate Reader, and the EC50 value was calculated by using GraphPad to fit the dose-effect curve. 50 μL of Celltiter Glo solution (Promega, Cat. No. G756B) was added to the remaining cell culture plates.

[3] = Cytotoxicity in THP1-Blue ISG cells (Celltiter Glo); type: cell-based, human; details: Celltiter Glo luminescence; for CC50 at 18 h: human
Procedure: as §1

[4] = test system: STING signaling pathway; assay: Cytokine secretion in PBMC (ELISA); type: cell-based; details: 6 h
Procedure: (§2) The following experiments were performed to determine the activation effect of the compound on the STING signaling pathway in PBMC cells, which mainly using ELISA to detect the secretion of IL-6, TNF-, IFN-, and IFN- in the cell culture supernatant. At the same time, CTG (CellTiter-Glo) was used to detect the survival rate of the cells, and to calculate the half cytotoxic dose of cells CC50.
(§3) The frozen PBMC cells were placed in a 37° C. water bath. After the ice was completely melted, the cells were transferred to 3 ml of RPMI 1640 complete culture medium (containing 10% FBS), and then centrifuged at 1500 rpm for 3 minutes. After removing the supernatant, the cells were re-suspended for counting. 200 μL of 50,000 PBMC cells were added in a 96-well plate, and the compounds to be tested were diluted with different gradient concentrations. After 6 h, 150 μL of the cell supernatant was aspirated, and the concentrations of IL-6, TNF-, IFN-, and IFN- were measured using ELISA kits, and the curves of compound concentration and cytokine release were drawn to calculate the values of EC50. 50 μL of CTG solution was added to the remaining cell culture plate.

[5] = Cytotoxicity in PBMC (CellTiter-Glo); type: cell-based; details: PBMC cells, CTG
Procedure: as §2, §3

[6] = THP-1, THP1 cells, 18 h incubation, ELISA of culture supernatant
[7] = Homo sapiens, THP1-Blue ISG cells, 18 h incubation, QUANTI-Blue OD 620-655 nm, read-out: EC50
[8] = ELISA of supernatant, read-out: IFN-β EC50
[9] = ELISA of supernatant, read-out: IL-6 EC50
[10] = ELISA of supernatant, read-out: TNF-α EC50
[11] = THP1-Blue ISG cells, 18 h incubation, QUANTI-Blue OD 620-655 nm, read-out: EC50

Row | EC50 [1, 6] [nM] | EC50 [2, 7] [nM] | EC50 [4, 8] [nM] | EC50 [4, 9] [nM] | EC50 [4, 10] [nM] | SMILES | CC50 at 18 h [3] [nM] | CC50 at 6 h [5] [nM] | also measured
1 | 100 to 1000 | < 100 | 100 to 1000 | 100 to 1000 | 100 to 1000 | CCc1nc(C)sc1C(=O)Nc1nc2cc(C(N)=O)cc(OCCCN3CCN(C(=O)CCN)CC3)c2n1C/C=C/Cn1c(NC(=O)c2cc(C)nn2CC)nc2cc(C(N)=O)cc(SC)c21 [Example 1] | > 50000 | > 25000 | –
2 | 100 to 1000 | < 100 | 100 to 1000 | 100 to 1000 | 100 to 1000 | CCc1nc(C)sc1C(=O)Nc1nc2cc(C(N)=O)cc(OCCCN3CCN(C(=O)CCCNC)CC3)c2n1C/C=C/Cn1c(NC(=O)c2cc(C)nn2CC)nc2cc(C(N)=O)cc(SC)c21 [Example 2] | > 50000 | > 40000 | –
3 | 100 to 1000 | < 100 | 100 to 1000 | 100 to 1000 | 100 to 1000 | CCc1nc(C)sc1C(=O)Nc1nc2cc(C(N)=O)cc(OCCCN3CCN(C(=O)C(C)(C)CCN)CC3)c2n1C/C=C/Cn1c(NC(=O)c2cc(C)nn2CC)nc2cc(C(N)=O)cc(SC)c21 [Example 3] | > 50000 | > 40000 | –
4 | 100 to 1000 | < 100 | 100 to 1000 | < 100 | < 100 | CCc1nc(C)sc1C(=O)Nc1nc2cc(C(N)=O)cc(SC)c2n1C/C=C/Cn1c(NC(=O)c2cc(C)nn2CC)nc2cc(C(N)=O)cc(OCCCN3CCN(C(=O)OCCCC4CCNCC4)CC3)c21 [Example 13] | > 50000 | > 50000 | –
5 | 100 to 1000 | – | – | – | – | CCc1nc(C)sc1C(=O)Nc1nc2cc(C(N)=O)cc(OCCCN3CCN(C(=O)OCCCC4CCNCC4)CC3)c2n1C/C=C/Cn1c(NC(=O)c2c(F)c(C)nn2CC)nc2cc(C(N)=O)cc(SC)c21 [Example 15] | – | – | –
6 | > 1000 | – | – | – | – | CCc1nc(C)sc1C(=O)Nc1nc2cc(C(N)=O)cc(OCCCN3CCOCC3)c2n1C/C=C/Cn1c(NC(=O)c2c(F)c(C)nn2CC)nc2cc(C(N)=O)cc(SCCCNC(=O)OCCCC3CCNCC3)c21 [Example 18] | – | – | –
7 | > 1000 | – | – | – | – | CCc1nc(C)sc1C(=O)Nc1nc2cc(C(N)=O)cc(OCCCN3CCOCC3)c2n1C/C=C/Cn1c(NC(=O)c2c(F)c(C)nn2CC)nc2cc(C(N)=O)cc(OCCCN)c21 [Example 19] | – | – | –
8 | – | 100 to 1000 | 100 to 1000 | 100 to 1000 | 100 to 1000 | CCc1nc(C)sc1C(=O)Nc1nc2cc(C(N)=O)cc(OC)c2n1C/C=C/Cn1c(NC(=O)c2cc(C)nn2CC)nc2cc(C(N)=O)cc(OCCCN3CCNCC3)c21 [Example 20] | > 50000 | > 50000 | –

The next lines start with the compound.

Row | SMILES | EC50 [1, 6] [nM] | EC50 [2, 7] [nM] | EC50 [4, 8] [nM] | EC50 [4, 9] [nM] | EC50 [4, 10] [nM] | CC50 at 18 h [3] [nM] | CC50 at 6 h [5] [nM] | also measured
9 | CCc1nc(C)sc1C(=O)Nc1nc2cc(C(N)=O)cc(OCCCN3CCN(C(=O)OCCCN4CCNCC4)CC3)c2n1C/C=C/Cn1c(NC(=O)c2cc(C)nn2CC)nc2cc(C(N)=O)cc(SC)c21 [Example 6] | 100 to 1000 | – | – | – | – | – | – | –
10 | CCc1nc(C)sc1C(=O)Nc1nc2cc(C(N)=O)cc(OCCCN3CCN(C(=O)OCCCC4CCNCC4)CC3)c2n1C/C=C/Cn1c(NC(=O)c2cc(C)nn2CC)nc2cc(C(N)=O)cc(SC)c21 [Example 8] | – | – | – | – | – | – | – | EC50 ([1]; THP-1, 18 h): 100 to 1000 nM
11 | CCc1nc(C)sc1C(=O)Nc1nc2cc(C(N)=O)cc(OCCCN3CCN(C(=O)OCCCN)CC3)c2n1C/C=C/Cn1c(NC(=O)c2cc(C)nn2CC)nc2cc(C(N)=O)cc(SC)c21 [Example 10] | – | – | – | – | – | > 50000 | > 40000 | EC50 ([1]; THP-1, 18 h): 100 to 1000 nM; EC50 ([2]; Homo sapiens, THP1-Blue ISG, 18 h): < 100 nM; EC50 ([4]; read-out: IFN-β EC50): 100 to 1000 nM; EC50 ([4]; read-out: IL-6 EC50): 100 to 1000 nM; EC50 ([4]; read-out: TNF-α EC50): 100 to 1000 nM
12 | CCc1nc(C)sc1C(=O)Nc1nc2cc(C(N)=O)cc(OCCCN3CCN(CCNC)CC3)c2n1C/C=C/Cn1c(NC(=O)c2cc(C)nn2CC)nc2cc(C(N)=O)cc(SC)c21 [Example 11] | > 1000 | – | – | – | – | – | – | –
13 | CCc1nc(C)sc1C(=O)Nc1nc2cc(C(N)=O)cc(OCCCN3CCN(CCN)CC3)c2n1C/C=C/Cn1c(NC(=O)c2cc(C)nn2CC)nc2cc(C(N)=O)cc(SC)c21 [Example 12] | > 1000 | – | – | – | – | – | – | –
14 | CCc1nc(C)sc1C(=O)Nc1nc2cc(C(N)=O)cc(SC)c2n1C/C=C/Cn1c(NC(=O)c2c(F)c(C)nn2CC)nc2cc(C(N)=O)cc(OCCCN3CCN(C(=O)OCCCC4CCNCC4)CC3)c21 [Example 14] | 100 to 1000 | < 100 | 100 to 1000 | 100 to 1000 | < 100 | > 50000 | > 50000 | –
15 | CCc1nc(C)sc1C(=O)Nc1nc2cc(C(N)=O)cc(OCCCN3CCOCC3)c2n1C/C=C/Cn1c(NC(=O)c2c(F)c(C)nn2CC)nc2cc(C(N)=O)cc(SCCCN)c21 [Example 17] | > 1000 | – | – | – | – | – | – | –
16 | CCc1nc(C)sc1C(=O)Nc1nc2cc(C(N)=O)cc(OCCCN3CCNCC3)c2n1C/C=C/Cn1c(NC(=O)c2cc(C)nn2CC)nc2cc(C(N)=O)cc(OC)c21 [Example 21] | – | < 100 | 100 to 1000 | 100 to 1000 | < 100 | – | – | –
17 | CCc1nc(C)sc1C(=O)Nc1nc2cc(C(N)=O)cc(OCCCN3CCN(C(=O)OCCCNC(=O)OCc4ccc(NC(=O)[C@H](CCCNC(N)=O)NC(=O)[C@@H](NC(=O)CCCCCN5C(=O)C=CC5=O)C(C)C)cc4)CC3)c2n1C/C=C/Cn1c(NC(=O)c2cc(C)nn2CC)nc2cc(C(N)=O)cc(SC)c21 [Example 40] | – | – | – | < 100 | < 100 | – | – | EC50 [2, 11]: < 100 nM; CC50 ([3]; 18 h): > 50000 nM
18 | CCc1nc(C)sc1C(=O)Nc1nc2cc(C(N)=O)cc(OCCCN3CCN(C(=O)C(C)(C)CCNC(=O)OCCCNC(=O)OCc4ccc(NC(=O)[C@H](CCCNC(N)=O)NC(=O)[C@@H](NC(=O)CCCCCN5C(=O)C=CC5=O)C(C)C)cc4)CC3)c2n1C/C=C/Cn1c(NC(=O)c2cc(C)nn2CC)nc2cc(C(N)=O)cc(SC)c21 [Example 41] | – | – | – | 100 to 1000 | 100 to 1000 | > 50000 | – | EC50 [2, 11]: < 100 nM
